Measurements published in EP0810245A1, “Catalyst for low temperature cure of blocked isocyanates” (ELF ATOCHEM NORTH AMERICA, INC., priority 1996, dated 1997).

Key:
[1] = Gel time by Brookfield viscosity (time to 2500 cps), masterbatch of Examples 1-8 and A-J; parameters: key to Gel Time @250F (120C): minutes to reach target viscosity (gel time); GEL TIME @ 130°C: unit: min; conditions: for GEL TIME @ 130°C: 0.16%Sn, time to reach 2500 cps (gel times in mins)
Experimental: (§1) Solids content was maintained between 50-60%.
(§2) Comparison of catalyst activity was determined by monitoring viscosity as a function of cure time. A Brookfield viscometer fitted with a heated cell was connected to a strip chart recorder. A 10 gram aliquot of the formulation with the desired catalyst was placed in the chamber and rapidly heated to the test temperature. A #27 speed spindle was immersed into the solution and the initial viscosity measured. The rate of increase in viscosity was monitored until a viscosity of 2500 cps was achieved. In almost all the examples the formulation gelled at this viscosity. The time required to reach this viscosity was termed "gel time" at the test temperature. This technique provides information on the time required to reach a target viscosity and on the rate of increase in viscosity for a given system and compares the relative reactivity of different catalysts in a specific formulation at the same temperature. Variability in gel time is +/- 0.5-1.0 mins and is limited by the accuracy of weighing of the catalyst. […] Gel time measurements were then correlated with film properties.
The components were stirred to ensure complete solubility, usually from 2 to 4 hours. • Desmophen A565 (215g, 42.9 wt%) • Desmodur BL 3175 A (140g, 27.9 wt%) • methyl amyl ketone (58.5g, 11.7 wt%) • methy isobutyl ketone (58.5g, 11.7 wt%) • propylene glycol methyl ether acetate (29.0g, 5.8 wt%)
(§3) For each evaluation, a 10g aliquot of this master batch was removed and the appropriate catalyst added.

[2] = Gel time by Brookfield viscosity (time to 2500 cps), masterbatch of Examples 9-12 and K, Zn salts as co-catalysts; conditions: 0.16 %Sn, co-catalyst 0.07 %Zn where used
Experimental: as §1, §2
In comparative example K and operative examples 9 to 12 a masterbatch of the following mixture was prepared. The components were stirred to ensure complete solubility, usually from 2 to 4 hours. • Desmophen A565 215g • Desmodur BL 3175 A 140g • Methyl isobutyl ketone 146.4g
as §3

Row | Compound | GEL TIME @ 130°C [1] | Gel Time @250F (120C) ([1]; 0.20 %Sn) | Gel Time @ 120°C [2] | Gel Time @ 125°C [2] | Gel Time @250F (120C) ([1]; 0.16 %Sn) | Gel Time @266F (130C) ([1]; 0.16 %Sn) | Gel Time @266F (130C) ([1]; 0.20 %Sn)
1 | CCCCCCCCCCCC(=O)[O][Sn]([CH2]CCC)([CH2]CCC)[O]C(=O)CCCCCCCCCCC [A, Dibutyl Sn Dilaurate, reference compound] | 22.2 | 48.7 | 45 min | 29 min |  |  | 
2 | CCC[CH2][Sn]([CH2]CCC)([O]C(C)=O)[O]C(C)=O [B, Dibutyl Sn Diacetate, reference compound] | 21.2 |  |  |  | 45 | 21.3 min | 
3 | CCC[CH2][Sn](=[O])[CH2]CCC [C, Dibutyl Sn Oxide, reference compound] | 23.2 |  |  |  |  | 23.2 min | 
4 | CCC[CH2][Sn]([CH2]CCC)([O]C(C)=O)[O][Sn]([CH2]CCC)([CH2]CCC)[O]C(C)=O [D, Dibutyl Diacetoxy Stannox n=0, reference compound] | 18.6 |  |  |  | 38 | 18.6 min | 
5 | Dibutyl Di Octylmaleate Stannox n=6 [Example 3] | 20.4 |  |  |  |  |  | 
6 | Dibutyl Diacetoxy Stannox n=3 [Example 1] | 17.2 |  |  |  | 36.1 | 17.2 min | 
7 | Dibutyl Diacetoxy Stannox n=6 [Example 2] | 16.4 |  |  |  | 32.5 | 16.5 min | 
8 | Dibutyl Diformyloxy Stannox (n=3) [Example 4] |  | 27.5 |  |  |  |  | 15.9 min
9 | Dibutyl Diformyloxy Stannox (n=6) [Example 5] |  | 25.6 |  |  |  |  | 
10 | Dibutyl Diformyloxy Stannox (n=14) [Example 6] |  | 24.1 | 29 min | 19 min |  |  | 14.4 min
